Assay results from patent US20040198828A1, “Combinational use of long-acting and short-acting anti-histamines for ocular allergies” (priority 2003, published 2004).

System: eyes of allergic subjects challenged with allergen solution (birch, cat hair, cat dander)
Assay: Conjunctival allergen challenge (CAC), onset of action and duration of action study
Type: in vivo, human
Conditions: for Mean Differences (Active-Placebo), 15 Min Itching, Timepoint 1 / Mean Differences (Active-Placebo), 15 Min Itching, Timepoint 2 / Mean Differences (Active-Placebo), 15 Min Itching, Timepoint 3 / Mean Differences (Active-Placebo), 15 Min Redness, Timepoint 1 / Mean Differences (Active-Placebo), 15 Min Redness, Timepoint 2 / Mean Differences (Active-Placebo), 15 Min Redness, Timepoint 3: challenge 15 min after one drop; for Mean Differences (Active-Placebo), 16 hr Itching, Timepoint 1 / Mean Differences (Active-Placebo), 16 hr Itching, Timepoint 2 / Mean Differences (Active-Placebo), 16 hr Itching, Timepoint 3 / Mean Differences (Active-Placebo), 16 hr Redness, Timepoint 1 / Mean Differences (Active-Placebo), 16 hr Redness, Timepoint 2 / Mean Differences (Active-Placebo), 16 hr Redness, Timepoint 3: challenge 16 hr after one drop
Protocol: These following studies were performed using the standard conjunctival allergen challenge model as described in Abelson et al., Arch Ophthalmol. 108(1): 84-88 (1990), and Abelson et al., Curr Allergy Asthma Rep. 3(4): 363-8 (2003). Each experiment was a double-masked, contralateral placebo controlled, single center, onset of action and duration of action allergen challenge study.
A baseline ocular exam was performed to rule out any subjects with any ocular surface anomaly that would interfere with evaluations. A bilateral conjunctival allergen challenge was performed with the allergen to which the subject was known to be allergic to as evidenced by a skin test or previous conjunctival allergen challenge.
Subjects were administered one drop of masked study medication in each eye as described in the below tables (see Table 1-3). A period of at least 1 week was left between experiments on each single subject. At the specified timepoints, subjects were challenged bilaterally with one drop of allergen solution (allergen used were birch, cat hair, cat dander) at a concentration that was known to historically elicit a positive response (Abelson et al., Arch Ophthalmol. 108(1): 84-88 (1990)). Phosphate buffered saline (PBS) was used as placebo. A historic positive response to the challenge was defined as at least a +2.0 itching and +2.0 redness on scales 0-4, with 0 being none and 4 being severe.
Subjects were asked to grade their ocular itching on standardized scales described in Abelson et al., Arch Ophthalmol. 108(1): 84-88 (1990), scoring was performed from a scale of 0-4 at 3, 5, and 7 minutes post-challenge. Redness was graded by a masked observer on standardized scales 0-4 at 10, 15, and 20 minutes post-challenge. Digital photographs were taken of each eye at the 15 minute timepoint. If needed, subjects were administered one drop of a currently marketed topical anti-allergic medication (Naphcon A™: pheniramine maleate 0.3%/naphthazoline hydrochloride 0.025% ophthalmic solution) to relieve any immediate discomfort at the end of the visit.
Data from all subjects who completed any post-challenge examination was evaluable for that experiment and treatment. Mean itching and redness scores were compared between the treated eye and placebo eye to determine an efficacy score.

[1] = itching scale 0-4, timepoint 1 of 3, 5, 7 min post-challenge
[2] = itching scale 0-4, timepoint 2 of 3, 5, 7 min post-challenge
[3] = itching scale 0-4, timepoint 3 of 3, 5, 7 min post-challenge
[4] = redness scale 0-4, timepoint 1 of 10, 15, 20 min post-challenge
[5] = redness scale 0-4, timepoint 2 of 10, 15, 20 min post-challenge
[6] = redness scale 0-4, timepoint 3 of 10, 15, 20 min post-challenge

Row | Compound | Mean Differences (Active-Placebo), 15 Min Itching, Timepoint 1 [1] | Mean Differences (Active-Placebo), 15 Min Itching, Timepoint 2 [2] | Mean Differences (Active-Placebo), 15 Min Itching, Timepoint 3 [3] | Mean Differences (Active-Placebo), 15 Min Redness, Timepoint 1 [4] | Mean Differences (Active-Placebo), 15 Min Redness, Timepoint 2 [5] | Mean Differences (Active-Placebo), 15 Min Redness, Timepoint 3 [6] | Mean Differences (Active-Placebo), 4 hr Itching, Timepoint 1 (challenge 4 hr after one drop, itching scale 0-4, timepoint 1 of 3, 5, 7 min post-challenge) | Mean Differences (Active-Placebo), 4 hr Itching, Timepoint 2 (challenge 4 hr after one drop, itching scale 0-4, timepoint 2 of 3, 5, 7 min post-challenge) | Mean Differences (Active-Placebo), 4 hr Itching, Timepoint 3 (challenge 4 hr after one drop, itching scale 0-4, timepoint 3 of 3, 5, 7 min post-challenge) | Mean Differences (Active-Placebo), 4 hr Redness, Timepoint 1 (challenge 4 hr after one drop, redness scale 0-4, timepoint 1 of 10, 15, 20 min post-challenge) | Mean Differences (Active-Placebo), 4 hr Redness, Timepoint 2 (challenge 4 hr after one drop, redness scale 0-4, timepoint 2 of 10, 15, 20 min post-challenge) | Mean Differences (Active-Placebo), 4 hr Redness, Timepoint 3 (challenge 4 hr after one drop, redness scale 0-4, timepoint 3 of 10, 15, 20 min post-challenge) | Mean Differences (Active-Placebo), 16 hr Itching, Timepoint 1 [1] | Mean Differences (Active-Placebo), 16 hr Itching, Timepoint 2 [2] | Mean Differences (Active-Placebo), 16 hr Itching, Timepoint 3 [3] | Mean Differences (Active-Placebo), 16 hr Redness, Timepoint 1 [4] | Mean Differences (Active-Placebo), 16 hr Redness, Timepoint 2 [5] | Mean Differences (Active-Placebo), 16 hr Redness, Timepoint 3 [6]
1 | CN1CCCC(n2nc(Cc3ccc(Cl)cc3)c3ccccc3c2=O)CC1 (stereo not drawn) [Azelastine 0.05%, azelastine] | −2.5 | −2.5 | −2.5 | 0 | 0 | 0 | −0.5 | −1.0 | −1.0 | +0.5 | +1.0 | +1.0 |  |  |  |  |  | 
2 | c1ccc(CN(CC2=NCCN2)c2ccccc2)cc1 [Antazoline 0.5%, antazoline] | −2.33 | −2.83 | −2.5 | −0.83 | −0.83 | −1.00 |  |  |  |  |  |  |  |  |  |  |  | 
3 | CN(C)CCC(c1ccccc1)c1ccccn1 (stereo not drawn) [Pheniramine 0.5%, pheniramine] | −2.67 | −2.33 | −2.17 | −1.67 | −1.83 | −1.67 |  |  |  |  |  |  | −0.25 | 0 | 0 | 0.25 | 0.25 | 0.25
4 | CN1CCC(=C2c3ccccc3CC(=O)c3sccc32)CC1 [Keto 0.05%, ketotifen] | −2.00 | −2.33 | −2.00 | −1.50 | −1.17 | −1.50 |  |  |  |  |  |  | 0.75 | 0.25 | 0.25 | 0.5 | 0.5 | 0.25
